Reference: patent US11260042B2, “Pharmaceutical combination for the treatment of cancer” (ABILITY PHARMACEUTICALS S.L., priority 2017, dated 2022)
Read-outs that look alike come from different tables or passages of the source.

Assays:
H157 cells = experiment: Cell viability (MTT) of ABTL0812 in combination with paclitaxel, H157; type: cell-based, human; conditions: Homo sapiens, NCI-H157; H157, 48 hours, 0.1% FBS, single agent
Experimental: (§1) Methods: A549 cells were incubated with increasing concentrations of ABTL0812 (3-300 μM), paclitaxel (0.003-1 μM), or a combination of both using subIC50 fixed concentration of ABTL0812 and 0.003-1 μM paclitaxel for 72 hours in DMEM with 0.1% FBS. H157, H1957 and HTB-812 cells were incubated with increasing concentrations of paclitaxel (0.001-10 μM) alone and in combination with subIC50 fixed concentration of ABTL0812 for 48 hours in DMEM with 0.1% FBS. Cell viability was evaluated in all cases by MTT assay and IC50's were calculated for paclitaxel and the combination. The concentrations of the combinations for the different cell lines were:
(§2) Finally, the Combination Index (CI), as described in the previous section, was calculated for the values of paclitaxel IC50.

H1957 cells = experiment: Cell viability (MTT) of ABTL0812 in combination with paclitaxel, H1957; type: cell-based, human; conditions: Homo sapiens; H1957, 48 hours, 0.1% FBS, single agent
Experimental: as §1, §2

HTB-812 cells = experiment: Cell viability (MTT) of ABTL0812 in combination with paclitaxel, HTB-812; type: cell-based, human; conditions: Homo sapiens; HTB-812, 48 hours, 0.1% FBS, single agent
Experimental: as §1, §2

[1] = tested on: MDB-DA-231 (human triple negative breast cancer); experiment: Cell viability (MTT) of ABTL0812 alone or with paclitaxel in breast cancer; type: cell-based; conditions: Homo sapiens; MDB-DA-231, 48h, 0.5% FBS, MTT, single agent
Experimental: Methods: MDB-DA-231 cells were seeded in 24-well plates together with increasing concentration of paclitaxel (1-100 nM) in the presence of 5, 10 and 20 μM of ABTL0812 (all doses below to an IC25) for 48h (0.5% FBS). Cell viability was studied by the MTT assay and several parameters were determined to evaluate a possible synergism. First the IC50 for each drug alone or the combination was calculated.

[2] = type: in vivo
Experimental: Methods: Forty-five female CD-1 mice were distributed by means of the body weight stratification method into nine experimental groups (A-I) (5 animals for group) that differed in the treatment or in the day on which the reference items (paclitaxel and carboplatin) were administered.
The table below summarizes the treatment groups. Please note that the same administration schedule and doses were administered as in the previous efficacy studies.
The safety assessment relied on observed mortality, local and systemic clinical signs, body weight and food consumption recorded throughout the whole study. In addition, clinical pathology determinations (biochemistry and hematology) were performed before sacrifice in all animals. At the end of the observation period (one day after the last administration), all surviving animals were sacrificed and subjected to a gross necropsy. Moreover, the safety assessment was also based on the weight of selected target organs collected at sacrifice.

[3] = tested on: A549 human lung adenocarcinoma xenograft; type: in vivo; conditions: ABTL0812 30 mg/kg/day oral 5 times a week; docetaxel 5 mg/kg i.p. once a week
Experimental: Methods: Mice were injected with 5×10^6 A549 cells in each flank to induce tumor formation. […] ABTL0812 was administered by the oral route at 30 mg/kg/day, 5 times a week. Docetaxel 5 mg/kg was administered intra-peritoneally once a week (Coxon et al. 2012). Tumor volume and body weight were monitorized 3 times a week.

[4] = tested on: A549 (human lung carcinoma) cell line; experiment: Cell viability (MTT) of ABTL0812 in combination with docetaxel in lung cancer; type: cell-based; conditions: Homo sapiens, 72 h, A549, three days, FBS 0.5%, single agent
Experimental: Methods: A549 cells were incubated with increasing concentrations of ABTL0812 (3-300 μM), docetaxel (0.01-100 μM), or a combination of both (subIC50, i.e., 20 μM fixed concentration of ABTL812 and 0.01-100 μM docetaxel) for three days (FBS 0.5%). […] In the denominator, (Dx)1 is for D1“alone” that inhibits a system x %, and (Dx)2 is for D2“alone” that inhibits a system x %.

[5] = tested on: SH-SY5Y human neuroblastoma xenograft; type: in vivo, Nu/nu female mice
Experimental: Methods: Immunodeficient athymic NMRI-Foxn1^nu/Foxn1^nu nude mice were subcutaneously injected with SH-SY5Y cells. This cell line was genetically modified to express luciferase, which would allow the in vivo study not only of tumor size, but also of metastasis formation. When tumors reached an average volume of 80 mm^3, mice were randomly distributed into different treatment groups. ABTL0812 was administered orally at 120 mg/kg daily. In parallel we used cisplatin, a drug included in the chemotherapy induction phase for the treatment of neuroblastoma. Cisplatin was administered at 2 mg/kg i.p. twice a week (Wang et al. 2010). Additionally, we studied the effect of combining ABTL0812 with cisplatin at the indicated doses.
C. Metastasis formation. In order to investigate the effect of ABTL0812 in metastasis formation we used a SH-SY5Y cell line transduced with a luciferase reporter vector. As described above, mice bearing xenograft tumors derived from this cell line were treated with ABTL0812, cisplatin or the combination of both drugs. After ten days of treatment animals were sacrificed and metastasis were assessed ex vivo by monitoring luciferase-expressing cells in lung and liver.

[6] = tested on: LA1-5S neuroblastoma cell line; experiment: Cell viability (crystal violet) of ABTL0812 with retinoic acid, LA1-5S; conditions: 24h
Experimental: (§3) Methods: LA1-5S and SK-N-BE(2) cells were incubated with a subIC50 fixed concentration of ABTL0812 (30 μM), increasing concentrations of 10 μM, 20 μM and 30 μM of retinoic acid or a combination of both. […] Cells were treated for 24h in IMDM with 0.5% FBS. Cell viability was evaluated in all cases by crystal violet assay. Different doses were assessed in six replicates and the results shown are the average of two independent experiments. Statistical analyses were performed according to the T-Test principle with GraphPad Prism® 5.0 software (* p<0.05; ** p<0.01; *** p<0.001)..

[7] = tested on: SK-N-BE(2) human neuroblastoma cell line; experiment: Cell viability (crystal violet) of ABTL0812 with retinoic acid, SK-N-BE(2); conditions: 24h
Experimental: as §3

[8] = tested on: MiaPaca2 human pancreatic cancer xenograft; experiment: Human pancreatic xenograft (MiaPaca-2), gemcitabine and Nab-paclitaxel/gemcitabine; type: in vivo, Athymic Nude-Foxn1nu female mice; conditions: ABTL0812 120 mg/kg oral 5 times a week; gemcitabine 60 mg/kg, Nab-Paclitaxel 5 mg/kg i.p. 2 times a week (suboptimal chemotherapy dose)
Experimental: It is important to change the site of injection to avoid intestinal necrosis and keep Nab-Paclitaxel and gemcitabine injections as far as possible one from the other in mice abdomen. • Gemcitabine+ABTL0812 (n=10): treated orally with 120 mg/kg of ABTL0812 in 200 μl of distilled water+5% glycerol, 5 times a week and with 60 mg/kg of gemcitabine administered i.p in 100 μl of sterile water, 2 times a week. ABTL0812 was always administered before chemotherapy with the aim of reducing the stress derived from the i.p. injection, that is normally applied as the last administration. • Gemcitabine+Nab-Paclitaxel+ABTL0812 (n=8): treated orally with 120 mg/kg of ABTL0812 in 200 μl of distilled water+5% glycerol, 5 times a week, with 60 mg/kg of gemcitabine administered i.p. in 100 μl of sterile water, 2 times a week and with 5 mg/kg of Nab-Paclitaxel administered i.p. in 230 μl of 0.9% NaCl solution 2 times a week. As in the gemcitabine+Nab-Paclitaxel group, injections where administered in separated areas of the abdomen. […]
Treatment efficacy was assessed by measuring tumor volume three days a week. Additionally, total body weight was monitored three days a week to test the toxicity associated with the treatments in addition to visual examination of signs indicative of clinicopathological symptoms. […]

[9] = tested on: MiaPaca2 (human pancreatic carcinoma); experiment: Cell viability (MTT) of ABTL0812 alone or with gemcitabine in pancreatic cancer; type: cell-based; conditions: Homo sapiens, MIA PaCa-2; MiaPaca2, 72h, 0.5% FBS, MTT, single agent
Experimental: Methods: MiaPaca2 cells were seeded in 24-well plates together with gemcitabine (0.01-100 μM), ABTL812 (3-300 μM), or a combination of both (subIC50, i.e., 25 μM fixed concentration of ABTL0812 with 0.01-100 μM gemcitabine) and left in the incubator for 72h (0.5% FBS). Cell viability was studied by the MTT assay and several parameters were determined to evaluate a possible synergism. First the IC50 for each drug alone or the combination was calculated. Then, synergism (CI) was calculated as described above.

`CC(=O)O[C@H]1C(=O)[C@@]2(C)[C@H]([C@H](OC(=O)c3ccccc3)[C@]3(O)C[C@H](OC(=O)[C@H](O)[C@@H](NC(=O)c4ccccc4)c4ccccc4)C(C)=C1C3(C)C)[C@]1(OC(C)=O)CO[C@@H]1C[C@@H]2O` [Paclitaxel] gave an IC50 (H157 cells) of 4.19 µM, an IC50 (H1957 cells) of 3.68 µM and an IC50 (HTB-812 cells) of 2.71 µM. For the same molecule, the IC50 [1] was 0.0087 µM, the “Biochemistry Creat” value ([2]; mouse, in vivo) was 9.74 µmol/L and the “Biochemistry Triglyc” value ([2]; mouse, in vivo) was 1.31 mmol/L. The “Biochemistry Urea” value ([2]; mouse, in vivo) was 9.50 mmol/L, the “Body Weight Gain D 8-11” value ([2]; mouse, in vivo) was 0.442 g and the “Hematology PLT” value ([2]; mouse, in vivo) was 1378 ×10^3/μL. The “Hematology RBC” value ([2]; mouse, in vivo) was 9.59 ×10^6/μL and the “Hematology WBC” value ([2]; mouse, in vivo) was 6.28 ×10^3/μL.
With `CC(=O)O[C@@]12CO[C@@H]1C[C@H](O)[C@@]1(C)C(=O)[C@H](O)C3=C(C)[C@@H](OC(=O)[C@H](O)[C@@H](NC(=O)OC(C)(C)C)c4ccccc4)C[C@@](O)([C@@H](OC(=O)c4ccccc4)[C@H]21)C3(C)C` [Docetaxel, reference compound] the tumor volume [3] was “similarly reduced tumor volume” and the IC50 [4] was 1.7 µM.
In the case of `N.N.[Cl][Pt][Cl]` [Cisplatin, reference compound], the Hematocrit ([5]; mouse, in vivo) is reported as 37.3 ± 2.7%, the RBC ([5]; mouse, in vivo) is reported as 6.8 ± 0.9 ×10^6/μL and the WBC ([5]; mouse, in vivo) is reported as 3.0 ± 0.6 ×10^3/μL. The “hematological safety” value ([5]; mouse, in vivo) was “induced anemia and reduced white blood cell count” and the “metastasis formation in lung and liver” value ([5]; ten days of treatment, luciferase-expressing cells ex vivo) was “no significant effect in inhibiting metastasis formation”.
With `N.N.O=C([O-])C1(C(=O)[O-])CCC1.[Pt+2]` [Carboplatin] the “Body Weight Gain D 1-4” value ([2]; ABTL0812 120 mg/kg p.o. days 2-6, 9-13, paclitaxel 15, carboplatin 50 mg/kg i.p. D 2/9) was -0.626 g, the “Biochemistry Creat” value ([2]; PTX/CP on D 2/9) was 8.83 µmol/L and the “Biochemistry Triglyc” value ([2]; PTX/CP on D 2/9) was 1.35 mmol/L. The “Biochemistry Urea” value ([2]; PTX/CP on D 2/9) was 9.50 mmol/L, the “Body Weight Gain D 8-11” value ([2]; PTX/CP on D 2/9) was -0.450 g and the “Hematology PLT” value ([2]; PTX/CP on D 2/9) was 790 ×10^3/μL. For the same molecule, the “Hematology RBC” value ([2]; PTX/CP on D 2/9) was 8.40 ×10^6/μL and the “Hematology WBC” value ([2]; PTX/CP on D 2/9) was 7.09 ×10^3/μL.
For `CC1=C(/C=C/C(C)=C/C=C/C(C)=C/C(=O)O)C(C)(C)CCC1` [retinoic acid], the “cytotoxicity” value ([6]; LA1-5S, 30 μM ABTL0812, retinoic acid 10-30 μM) was “even lower”, the cell viability ([6]; LAI-5S cells, combination with low concentration of ABTL0812) was 82.8% and the cell viability ([7]; SK-N-BE(2) cells, combination with low concentration of ABTL0812) was 70.4%. For the same molecule, the “cytotoxicity” value ([7]; SK-N-BE(2), 30 μM ABTL0812, retinoic acid 10-30 μM) was “even lower”.
In the case of `Nc1ccn([C@@H]2O[C@H](CO)[C@@H](O)C2(F)F)c(=O)n1` [Gemcitabine, reference compound], the tumor volume [8] is reported as “do not show significant difference in tumor volume compared with vehicle group” and the IC50 [9] is reported as 10.2 µM.
